# Source: ChEMBL document CHEMBL1146908, “Synthesis of 16-mercaptohexadecylphosphocholine, a miltefosine analog with leishmanicidal activity” (2006)
# Assays:
# Assay type in all cases: functional
# Conditions in all cases: read-out: LD50 (the source's name)
# Leishmania donovani [1] = assay: Antileishmanial activity against miltefosine-resistant Leishmania donovani promastigotes by MTT assay
# Leishmania mexicana [2] = assay: Antileishmanial activity against Leishmania pifanoi axenic amastigotes by MTT assay
# Leishmania mexicana [3] = assay: Antileishmanial activity against miltefosine-resistant Leishmania pifanoi axenic amastigotes by MTT assay
# Leishmania donovani [4] = assay: Antileishmanial activity against Leishmania donovani promastigotes by MTT assay
SMILES,LC50 (Leishmania donovani [1]),LC50 (Leishmania mexicana [2]),LC50 (Leishmania mexicana [3]),LC50 (Leishmania donovani [4])
C[N+](C)(C)CCOP(=O)([O-])OCCCCCCCCCCCCCCCCS,> 50 µM,5.5 µM,> 50 µM,5.1 µM
CCCCCCCCCCCCCCCCOP(=O)([O-])OCC[N+](C)(C)C [MILTEFOSINE],> 50 µM,5 µM,> 50 µM,5.3 µM
